According to US20250011288A1 (BRISTOL-MYERS SQUIBB COMPANY, priority 2021, published 2025):

Biological target: T1, human RXFP1 (Homo sapiens, UniProt Q9HBX9)
T1 construct: expressed in transfected cells
T1 sequence (Q9HBX9 1-757): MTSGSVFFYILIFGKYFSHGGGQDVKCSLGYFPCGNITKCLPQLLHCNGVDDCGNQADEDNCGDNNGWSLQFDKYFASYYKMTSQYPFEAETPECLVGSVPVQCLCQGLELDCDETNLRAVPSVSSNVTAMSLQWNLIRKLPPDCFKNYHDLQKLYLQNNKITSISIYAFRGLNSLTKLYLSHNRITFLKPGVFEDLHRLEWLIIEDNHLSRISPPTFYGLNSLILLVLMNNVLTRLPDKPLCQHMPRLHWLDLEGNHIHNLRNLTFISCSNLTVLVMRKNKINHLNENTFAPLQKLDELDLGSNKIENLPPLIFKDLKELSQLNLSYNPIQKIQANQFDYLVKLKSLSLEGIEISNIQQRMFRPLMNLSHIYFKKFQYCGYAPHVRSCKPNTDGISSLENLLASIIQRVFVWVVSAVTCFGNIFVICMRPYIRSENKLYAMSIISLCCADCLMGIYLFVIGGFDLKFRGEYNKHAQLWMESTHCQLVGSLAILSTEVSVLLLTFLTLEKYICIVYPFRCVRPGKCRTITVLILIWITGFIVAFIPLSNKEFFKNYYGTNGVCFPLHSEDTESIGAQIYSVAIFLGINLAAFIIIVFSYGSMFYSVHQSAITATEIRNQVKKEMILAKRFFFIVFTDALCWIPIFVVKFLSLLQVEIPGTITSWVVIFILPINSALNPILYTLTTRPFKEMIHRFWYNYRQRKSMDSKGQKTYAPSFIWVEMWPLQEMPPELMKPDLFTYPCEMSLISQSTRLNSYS
Assay: human RXFP1 (hRXFP1) HEK293 cAMP assay (HTRF)
Assay type: cell-based
Details: HEK293 cells stably expressing human RXFP1, 30 min at room temperature
Procedure, shortened: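 Intracellular cAMP was quantified by HTRF after a 30 min room-temperature exposure of hRXFP1-HEK293 cells (1500/well) to compound at 0.010 nM–50 µM final, 2% DMSO. Buffer was HBSS with 20 mM HEPES, 0.05% BSA and 0.5 mM IBMX; values came from a 4-parameter logistic fit.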

| Compound | EC50 |
| --- | --- |
| COc1ncc(C2=NOC3COCC23)cc1C(=O)N[C@H]1[C@@H](C(=O)Nc2ccc(F)c(C(F)(F)F)c2)[C@H]2CC[C@@H]1/C2=C\C1CCCC1 (stereo partly drawn) [Example 136, N-((1R,2R,3S,4R,Z)-7-(cyclopentyl-methylene)-3-((4-fluoro-3-(trifluoromethyl)phenyl)carbamoyl)bicyclo[2.2.1]heptan-2-yl)-2-methoxy-5-(3a,4,6,6a-tetrahydrofuro[3,4-d]isoxazol-3-yl)nicotinamide] | 2.5 nM |
| O=C(O)c1ccc(F)c(-c2cnc(OCCO)c(C(=O)N[C@@H]3C4CCC(/C4=C/C(F)(F)F)[C@@H]3C(=O)Nc3ccc(F)c(C(F)(F)F)c3)n2)c1 (stereo partly drawn) [Example 47, 4-Fluoro-3-(6-{[(2R,3S,7Z)-3-{[4-fluoro-3-(trifluoromethyl)phenyl]carbamoyl}-7-(2,2,2-trifluoroethylidene)bicyclo[2.2.1]heptan-2-yl]carbamoyl}-5-(2-hydroxyethoxy)pyrazin-2-yl)benzoic acid] | 200 nM |
| COc1ncc(C2=NOC3CC(C(O)C(F)(F)F)CC23)cc1C(=O)N[C@H]1[C@@H](C(=O)Nc2ccc(F)c(C(F)(F)F)c2)[C@H]2CC[C@@H]1/C2=C\C(C)C (stereo partly drawn) [Example 127, N-((1R,2R,3S,4R,Z)-3-((4-fluoro-3-(trifluoromethyl)phenyl)carbamoyl)-7-(2-methylpropylidene)bicyclo[2.2.1]heptan-2-yl)-2-methoxy-5-(5-(2,2,2-trifluoro-1-hydroxyethyl)-3a,5,6,6a-tetrahydro-4H-cyclopenta [d]isoxazol-3-yl)nicotinamide] | 4.3 nM |
| COc1ncc(-c2cc([C@H](OC(=O)NC3CCC3)C(F)(F)F)ccc2F)cc1C(=O)N[C@@H]1C2CCC(/C2=C/CCC(F)(F)F)[C@@H]1C(=O)Nc1ccc(F)c(C(F)(F)F)c1 (stereo partly drawn) [Example 168, (1S)-2,2,2-trifluoro-1-[4-fluoro-3-(5-{[(2R,3S,7Z)-3-{[4-fluoro-3-(trifluoromethyl)phenyl]carbamoyl}-7-(4,4,4-trifluorobutylidene)bicyclo[2.2.1]heptan-2-yl]carbamoyl}-6-methoxypyridin-3-yl)phenyl]ethyl N-cyclobutyl-carbamate] | 5.3 nM |
| N- ((1R,2R,3S,4R,Z)- 3-((4-fluoro-3- (trifluoromethyl) phenyl)carbamoyl)- 7-3- hydroxy- propylidene) bicyclo[2.2.1] heptan-2-yl)-5-(5- (hydroxymethyl)- 3a,5,6,6a- tetrahydro-4H- cyclopenta[d] isoxazol-3-yl)-2- methoxy- nicotinamide [Example 114] | 1.2 nM |
| COc1ncc(C2=NOC3COCC23)cc1C(=O)N[C@H]1[C@@H](C(=O)Nc2ccc(F)c(C(F)(F)F)c2)[C@H]2CC[C@@H]1/C2=C\C1CC1 (single isomer, unassigned) [Example 61] | 3.7 nM |
| CC(O)C1CC2ON=C(c3cc4c(c(C(=O)N[C@H]5[C@@H](C(=O)N[C@H](C)C6(C)CC6)[C@H]6CC[C@@H]5/C6=C\C5CC5)c3)OC(C)(C)C4)C2C1 (stereo partly drawn) [Example 176, N-[(1R,2R,3S,4R, 7Z)-7-(cyclopropyl-methylidene)-3-{[(1R)-1-(1-methylcyclopropyl)ethyl]carbamoyl}bicyclo[2.2.1]heptan-2-yl]-5-[5-(1-hydroxyethyl)-3aH,4H,5H,6H, 6aH-cyclopenta[d][1,2]oxazol-3-yl]-2,2-dimethyl-2,3-dihydro-1-benzofuran-7-carboxamide] | 6 nM |
| COc1ncc(C2=NOC3CC(C(C)O)CC23)cc1C(=O)N[C@H]1[C@@H](C(=O)Nc2ccc(F)c(C(F)(F)F)c2)[C@H]2CC[C@@H]1/C2=C\C1CC1 (stereo partly drawn) [Example 110, N-((1R,2R,3S, 4R,Z)-7-(cyclopropyl-methylene)-3-((4-fluoro-3-(trifluoromethyl)phenyl)carbamoyl)bicyclo[2.2.1]heptan-2-yl)-5-(5-(1-hydroxyethyl)-3a,5,6,6a-tetrahydro-4H-cyclopenta[d]isoxazol-3-yl)-2-methoxy-nicotinamide] | 3.5 nM |

More lines, in order of falling EC50, values ahead:

| EC50 | Compound |
| --- | --- |
| 1700 nM | O=C(N[C@@H]1C2CCC(/C2=C/C(F)(F)F)[C@@H]1C(=O)Nc1ccc(F)c(C(F)(F)F)c1)c1cnn2c(C(F)F)cc(Cl)cc12 (stereo partly drawn) [Example 13] |
| 8.1 nM | O=C(Nc1ccccc1)O[C@@H](c1ccc(F)c(-c2cnc(OCCO)c(C(=O)N[C@H]3[C@@H](C(=O)Nc4ccc(F)c(C(F)(F)F)c4)[C@H]4CC[C@@H]3/C4=C\C(F)(F)F)c2)c1)C(F)(F)F [Example 42, (S)-2,2,2-trifluoro-1-(4-fluoro-3-(5-(((1R,2R,3S,4R,Z)-3-((4-fluoro-3-(trifluoromethyl)phenyl)carbamoyl)-7-(2,2,2-trifluoroethylidene)bicyclo[2.2.1]heptan-2-yl)carbamoyl)-6-(2-hydroxyethoxy)pyridin-3-yl)phenyl)ethyl phenylcarbamate] |
| 7.8 nM | COc1cc(C2=NOC3CC(COC(=O)Nc4ccccc4)CC23)cc(C(=O)N[C@@H]2C3CCC(/C3=C/C3CC3)[C@@H]2C(=O)Nc2ccc(F)c(C(F)(F)F)c2)n1 (stereo partly drawn) [Example 158, [3-(2-{[(2R,3S,7Z)-7-(cyclopropyl-methylidene)-3-{[4-fluoro-3-(trifluoromethyl)phenyl]carbamoyl}bicyclo[2.2.1]heptan-2-yl]carbamoyl}-6-methoxypyridin-4-yl)-3aH,4H,5H,6H, 6aH-cyclopenta[d][1,2]oxazol-5-yl]methyl N-phenylcarbamate] |
| 4.3 nM | CCC(O)C1CC2ON=C(c3cnc(OC)c(C(=O)N[C@H]4[C@@H](C(=O)Nc5ccc(F)c(C(F)(F)F)c5)[C@H]5CC[C@@H]4/C5=C\C4CC4)c3)C2C1 (stereo partly drawn) [Example 113, N-((1R,2R,3S,4R,Z)-7-(cyclopropyl-methylene)-3-((4-fluoro-3-(trifluoromethyl)phenyl)carbamoyl)bicyclo[2.2.1]heptan-2-yl)-5-(5-(1-hydroxypropyl)-3a,5,6,6a-tetrahydro-4H-cyclopenta[d]isoxazol-3-yl)-2-methoxynicotinamide] |
| 4.3 nM | COc1ncc(C2=NOC3CN(CC(O)C(F)(F)F)CC23)cc1C(=O)N[C@H]1[C@@H](C(=O)Nc2ccc(F)c(C(F)(F)F)c2)[C@H]2CC[C@@H]1/C2=C\C1CC1 (stereo partly drawn) [Example 180, N-[(1R,2R,3S,4R, 7Z)-7-(cyclopropyl-methylidene)-3-{[4-fluoro-3-(trifluoromethyl)phenyl]carbamoyl}bicyclo[2.2.1]heptan-2-yl]-2-methoxy-5-[5-(3,3,3-trifluoro-2-hydroxypropyl)-3aH,4H,5H,6H, 6aH-pyrrolo[3,4-d][1,2]oxazol-3-yl]pyridine-3-carboxamide] |
| 3.9 nM | COc1ncc(C2=NOC3COCC23)cc1C(=O)N[C@H]1[C@@H](C(=O)N[C@H](C)C2(C)CC2)[C@H]2CC[C@@H]1/C2=C\c1csc(C(F)(F)F)n1 (stereo partly drawn) [Example 119, 2-methoxy-N-((1R,2R,3S,4R,Z)-3-(((R)-1-(1-methylcyclopropyl)ethyl)carbamoyl)-7-((2-(trifluoromethyl)thiazol-4-yl)methylene)bicyclo[2.2.1]heptan-2-yl)-5-(3a,4,6,6a-tetrahydrofuro[3,4-d]isoxazol-3-yl)nicotinamide] |
| 3.6 nM | COc1ncc(C2=NOC3CC(C(O)C4CC4)CC23)cc1C(=O)N[C@H]1[C@@H](C(=O)Nc2ccc(F)c(C(F)(F)F)c2)[C@H]2CC[C@@H]1/C2=C\C1CC1 (stereo partly drawn) [Example 111, 5-(5-(cyclopropyl (hydroxy)methyl)-3a,5,6,6a-tetrahydro-4H-cyclopenta[d]isoxazol-3-yl)-N-((1R,2R,3S,4R,Z)-7-(cyclopropyl-methylene)-3-((4-fluoro-3-(trifluoromethyl)phenyl)carbamoyl)bicyclo[2.2.1]heptan-2-yl)-2-methoxynicotinamide] |
| 3.5 nM | COc1ncc(C2=NOC3CC(O)CC23)cc1C(=O)N[C@H]1[C@@H](C(=O)Nc2ccc(F)c(C(F)(F)F)c2)[C@H]2CC[C@@H]1/C2=C\C1CCC1 (stereo partly drawn) [Example 117, N-((1R,2R,3S,4R,Z)-7-(cyclobutyl-methylene)-3-((4-fluoro-3-(trifluoromethyl)phenyl)carbamoyl)bicyclo[2.2.1]heptan-2-yl)-5-(5-hydroxy-3a,5,6,6a-tetrahydro-4H-cyclopenta[d]isoxazol-3-yl)-2-methoxynicotinamide] |
| 2.6 nM | COc1ncc(C2=NO[C@H]3C[C@H](CO)CN23)cc1C(=O)N[C@@H]1C2CCC(/C2=C/C2CC2)[C@@H]1C(=O)N[C@H](C)C1(C)CC1 (stereo partly drawn) [Example 107, N-((1R,2R,3S, 4R,Z)-7-(cyclopropyl-methylene)-3-(((R)-1-(1-methylcyclopropyl)ethyl)carbamoyl)bicyclo[2.2.1]heptan-2-yl)-5-((6S,7aS)-6-(hydroxymethyl)-5,6,7,7a-tetrahydropyrrolo [1,2-d][1,2,4]oxadiazo 1-3-yl)-2-methoxynicotinamide] |
| 2.2 nM | CC1(C)Cc2cc(C3=NOC4CC(O)(C(F)(F)F)CC34)cc(C(=O)N[C@@H]3C4CCC(/C4=C/C4CCCC4)[C@@H]3C(=O)Nc3ccc(F)c(C(F)(F)F)c3)c2O1 (single isomer, unassigned) [Example 142] |
